Assay [1] concerns CNT. The following applies: Non-patent Reference 14; cited from earlier work.
In assay [2] the target is T1, human CNT2 (Homo sapiens, UniProt O43868, I160M/P22L/S45C).
T1 construct: expressed in transfected cells; host or cells: COS-7 cells (RIKEN CELL BANK RCB0539), transient lipofection of a pCI-neo plasmid
T1 sequence (O43868 1-658 P22L/S45C/I160M): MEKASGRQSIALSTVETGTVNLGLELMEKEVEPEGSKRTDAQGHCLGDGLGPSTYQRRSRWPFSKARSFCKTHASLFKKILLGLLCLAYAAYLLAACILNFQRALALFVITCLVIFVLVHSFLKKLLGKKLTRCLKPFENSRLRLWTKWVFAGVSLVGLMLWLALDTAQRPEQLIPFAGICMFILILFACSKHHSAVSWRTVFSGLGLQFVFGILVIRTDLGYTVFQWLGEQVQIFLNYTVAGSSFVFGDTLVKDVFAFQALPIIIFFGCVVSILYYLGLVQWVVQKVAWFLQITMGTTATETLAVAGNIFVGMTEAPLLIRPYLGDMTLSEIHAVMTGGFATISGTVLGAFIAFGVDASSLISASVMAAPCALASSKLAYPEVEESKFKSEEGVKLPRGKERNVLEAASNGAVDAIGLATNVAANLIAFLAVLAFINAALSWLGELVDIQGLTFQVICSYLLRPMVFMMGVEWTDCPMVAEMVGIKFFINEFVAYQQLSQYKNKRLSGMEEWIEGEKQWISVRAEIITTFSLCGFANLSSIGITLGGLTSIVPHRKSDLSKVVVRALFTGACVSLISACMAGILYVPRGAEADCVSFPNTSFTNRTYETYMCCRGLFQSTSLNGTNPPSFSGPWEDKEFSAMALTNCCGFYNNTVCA
The experiment in a line: Inhibitory activity against uptake of inosine through human CNT2. It is filed as cell-based. The following applies: 14C-labeled inosine 10 μM, COS-7 cells transiently expressing human CNT2, 30 minutes at 37° C. How it is done: Expression plasmid of human CNT2 was transfected into COS-7 cells (RIKEN CELL BANK RCB0539) by lipofection method. LIPOFECTAMINE 2000 (Invitrogen) was used as a lipofection reagent. COS-7 cells were diluted in D-MEM (Invitrogen) containing 10% fetal calf serum (Sanko Junyaku) at 5×10^5/1 mL, and seeded into collagen-coated 96-well plates (IWAKI) at 100 μL/well and cultured at 37° C. for 2 hours with 5% CO2 condition. For each well, 0.6 μL of LIPOFECTAMINE 2000 (Invitrogen) was diluted in 25 μL of OPTI-MEM (Invitrogen), and incubated for 7 minutes at room temperature (hereinafter referred to as Lipo 2000-OPTI). For each well, 0.3 μg of plasmid was diluted in 25 μL of OPTI-MEM (Invitrogen), and the solution was added to the Lipo 2000-OPTI and mixed gently and incubated for 30 minutes at room temperature, and was transferred 50 μL for each well to culture medium. The cells were incubated at 37° C. with 5% CO2 condition for 2 days, and used for the uptake assays.
An Uptake buffer was prepared by addition of a mixture of non-radioisotope labeled (WAKO) and ^14C-labeled (Muromachi Yakuhin) inosine at the final concentration of 10 μM into a buffer, pH7.4, containing 140 mM sodium chloride, 2 mM potassium chloride, 1 mM calcium chloride, 1 mM magnesium chloride, 10 mM HEPES 2-[4-(2-hydroxyethyl)-1-piperazinyl]ethane sulfonic acid, 5 mM tris(hydroxymethyl)aminomethane and 5 mM glucose. For measurement of basal uptake, Basal uptake measurement buffer, which contained 140 mM choline chloride instead of sodium chloride was prepared. In uptake assays, NBMPR was added to Uptake buffer and Basal uptake measurement buffer at the final concentration of […]. In the case of measurement of inhibitory activity of test compounds, test compounds were dissolved in dimethyl sulfoxide, and then appropriately diluted with Uptake buffer as to prepare Measurement buffers. After removing culture medium of human CNT2 transiently expressing cells, Pretreatment buffer (Basal uptake measurement buffer without inosine and glucose) was added to wells at 200 μL/well and incubated at 37° C. for 10 minutes. After repeating the same step again, Pretreatment buffer was removed and Measurement buffers and Basal uptake measurement buffer were added at 75 μL/well and incubated at 37° C. After incubation for 30 minutes, Measurement buffers and Basal uptake measurement buffer were removed, and the cells were washed with Washing buffer (Basal uptake measurement buffer with non-radioisotope labeled inosine at 10 μM) at 200 μL/well twice. The cells were solubilized with 0.2 mol/L sodium hydroxide at 75 μL/well, and the cell lysates were transferred into PicoPlates (Perkin Elmer). After mixing with 150 μL of MicroScint-40 (Perkin Elmer), radioactivity was measured by means of scintillation counter (Perkin Elmer). One hundred % was set to the difference between the uptake in the control group and the basal uptake, and the uptake of inosine at each test compound concentration was calculated. The test compound concentration inhibiting 50% uptake of inosine (IC50 value) was calculated using logit plot.

The target in assay [3] is T2, ENT2 (Homo sapiens, UniProt Q14542).
T2 sequence (Q14542 1-456): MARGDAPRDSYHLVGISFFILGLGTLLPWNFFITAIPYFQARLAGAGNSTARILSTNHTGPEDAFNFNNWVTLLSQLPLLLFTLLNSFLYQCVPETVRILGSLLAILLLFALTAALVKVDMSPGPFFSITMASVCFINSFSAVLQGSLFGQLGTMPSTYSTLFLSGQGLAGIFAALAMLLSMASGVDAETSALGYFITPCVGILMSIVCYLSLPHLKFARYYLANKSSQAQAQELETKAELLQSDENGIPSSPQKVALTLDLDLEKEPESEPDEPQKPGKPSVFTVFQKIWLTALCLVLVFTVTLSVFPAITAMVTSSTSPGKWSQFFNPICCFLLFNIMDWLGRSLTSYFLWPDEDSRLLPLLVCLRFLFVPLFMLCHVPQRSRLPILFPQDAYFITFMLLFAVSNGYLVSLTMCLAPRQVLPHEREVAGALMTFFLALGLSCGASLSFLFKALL
The settings on record: ENT2 inhibited only by high concentration of NBMPR; cited from earlier work.

The values that follow come from patent US7795236B2, “Purine nucleoside derivative modified in 8-position and medical use thereof” (Kissei Pharmaceutical Co., Ltd., priority 2005, dated 2010).

For `Nc1ncnc2c1nc(Br)n2[C@@H]1O[C@H](CO)[C@@H](O)[C@H]1O` [8-bromoadenosine], in assay [1], the “inhibitory activity against CNT” value is reported as “weak inhibitory activity”.
Broadly, the IC50 is the concentration that inhibits the measured activity by half. For `CCN(CC)CCCOc1cc(CNc2nc3c(N)ncnc3n2[C@@H]2O[C@H](CO)[C@@H](O)[C@H]2O)ccc1-c1ccccc1` [Example 115, 8-[2-(3-Diethylaminopropoxy)biphenyl-4-ylmethylamino]-adenosine], the IC50 in assay [2] was 378 nM.
In assay [2], `CN(C)CCCOc1cccc(-c2ccc(CNc3nc4c(N)ncnc4n3[C@@H]3O[C@H](CO)[C@@H](O)[C@H]3O)cc2)c1` [Example 117] yielded an IC50 of 378 nM.
The compound `Nc1ncnc2c1nc(NCc1ccc(-c3ccccc3)c(OCCCN3CCCC3)c1)n2[C@@H]1O[C@H](CO)[C@@H](O)[C@H]1O` [Example 120] displayed a 50% inhibitory concentration (IC50) in assay [2] of 444 nM.
Compound `Nc1ncnc2c1nc(NCc1ccc(-c3cccc(OCCCN4CCCCC4)c3)cc1)n2[C@@H]1O[C@H](CO)[C@@H](O)[C@H]1O` [Example 125] showed an IC50 in assay [2] of 528 nM.
Consider `CCN(CCO)CCCOc1cc(CNc2nc3c(N)ncnc3n2[C@@H]2O[C@H](CO)[C@@H](O)[C@H]2O)ccc1-c1ccccc1` [Example 130], for which half-maximal inhibition in assay [2] (IC50) required 223 nM.
In the case of `Nc1ncnc2c1nc(NCc1ccc(-c3ccsc3)cc1)n2[C@@H]1O[C@H](CO)[C@@H](O)[C@H]1O` [Example 132], the half-inhibitory concentration (IC50) in assay [2] was 649 nM.
Same read-out and setting: then `CCCNCCCOc1cc(CNc2nc3c(N)ncnc3n2[C@@H]2O[C@H](CO)[C@@H](O)[C@H]2O)ccc1-c1ccccc1` [Example 147], with 321 nM; and `NCCCOc1ccc(-c2cccc(CNc3nc4c(N)ncnc4n3[C@@H]3O[C@H](CO)[C@@H](O)[C@H]3O)c2)cc1` [Example 149], with 176 nM; and `NCCCOc1cc(CNc2nc3c(N)ncnc3n2[C@@H]2O[C@H](CO)[C@@H](O)[C@@H]2O)ccc1-c1ccccc1` [Example 153], with 1610 nM.
On to `NCCCOc1cccc(-c2ccc(CNc3nc4c(N)ncnc4n3[C@@H]3O[C@H](CO)[C@@H](O)[C@@H]3O)cc2)c1` [Example 154], for which inhibition in assay [2] was half-maximal at 7150 nM (IC50).
Same read-out and setting: next, `NCCCOc1cc(CNc2nc3c(N)ncnc3n2[C@H]2C[C@H](O)[C@@H](CO)O2)ccc1-c1ccccc1` [Example 155]: 266 nM; `N=C(N)NCCCOc1cccc(-c2ccc(CNc3nc4c(N)ncnc4n3[C@@H]3O[C@H](CO)[C@@H](O)[C@H]3O)cc2)c1` [Example 157, 8-[3′-(3-Guanidinopropoxy)biphenyl-4-ylmethylamino]-adenosine]: 234 nM; `NC(=O)[C@H](Cc1ccc(O)cc1)NCCCOc1cccc(-c2ccc(CNc3nc4c(N)ncnc4n3[C@@H]3O[C@H](CO)[C@@H](O)[C@H]3O)cc2)c1` [Example 164]: 85 nM.
Still for that read-out and setting: next, `C[N+](C)(C)CCCOc1cccc(-c2ccc(CNc3nc4c(N)ncnc4n3[C@@H]3O[C@H](CO)[C@@H](O)[C@H]3O)cc2)c1` [Example 167]: 412 nM.
In the case of `CN(C)CCCOc1cccc(-c2ccc(CCNc3nc4c(N)ncnc4n3[C@@H]3O[C@H](CO)[C@@H](O)[C@H]3O)cc2)c1` [Example 171], the 50% inhibitory concentration (IC50) in assay [2] was 2430 nM.
With `O=[N+]([O-])c1ccc(CSc2ncnc3c2ncn3C2OC(CO)C(O)C2O)cc1` (centres unmarked) [NBMPR, nitrobenzylthioinosine], the concentration for half-maximal inhibition (IC50) in assay [3] was over 1000 nM.
